These are literature values, as cited in article PMC3099137 (Bioorganic & medicinal chemistry, 2011).

The IC50 is the midpoint of a concentration-inhibition curve.

The conditions of data set [1]: mice, attributed to in vivo defluorination.
Data set [2] has as its target EGFR tyrosine kinase. Particulars: read-out: IC50, inhibition of EGFR tyrosine kinase activity.

Consider `COc1cc2ncnc(Nc3ccc([18F])c(Cl)c3)c2cc1OC` [4-(3-chloro-4-[^18F]fluoroanilino)-6,7-dimethoxy-quinazoline], for which the “bone uptake (in words)” value in data set [1] was “high bone uptake”.
Consider `COc1cc2ncnc(Nc3cccc(Br)c3)c2cc1OC` [PD153035, 6,7-dimethoxy-4-(3-bromoanilino)quinazoline], for which the IC50 in data set [2] is 0.025 nM.
Consider `CCOc1cc2ncnc(Nc3cccc(Br)c3)c2cc1OCC` [diethoxy- derivative], for which the IC50 in data set [2] was 0.006 nM.
